Measured values reported in US8648058B2, “Diazeniumdiolate cyclopentyl derivatives” (Merck Sharp & Dohme Corp., priority 2010, dated 2014).

Test system: Male beagle dogs
Assay: canine telemetry protocol for blood pressure reduction efficacy
Format: in vivo
Conditions: 3 mg/kg dose, oral gavage, telemetered male beagle dogs; for ΔPP (mm Hg) 1-6 h / ΔPP (mm Hg) 6-12 h / ΔPP (mm Hg) 12-18 h: change from baseline in pulse pressure; for ΔSBP (mm Hg) 1-6 h / ΔSBP (mm Hg) 6-12 h / ΔSBP (mm Hg) 12-18 h: change from baseline in systolic blood pressure
Description: Compounds of the invention were evaluated for blood pressure reduction efficacy using the following canine telemetry protocol described below.
Male beagle dogs (approximately 1-3 years old) with a body weight of between 10 and 16 kg were surgically implanted with DSI radiotelemetry devices (model: TL11M2-D70-PCT). Briefly, under an inhalant anesthesia, isoflurane/oxygen mixture (1-3.5%/to effect), the body of the telemetry device was positioned and secured intra-abdominally. Subsequently, the arterial catheter of the telemetry device was passed subcutaneously to the inguinal area and introduced into the femoral artery and advanced to the level of the descending aorta. The catheter was secured with 2-0 silk ligatures. The muscle and underlying fascia was closed over the catheter using absorbable suture and the skin was closed using non-absorbable suture. The animals were allowed a minimum recovery period of 2 weeks between surgery and the evaluation of test compounds.
Compound evaluation consisted of a 3 day paradigm at a 3 mg/kg dose. On the first day, no compounds were administered during a 24 hour period of baseline data collection. Blood pressure and heart rate data were collected continuously for one minute periods at 10 minute intervals. On the days of compound administration half the animals received test article with the other half receiving the vehicle used for compound formulation. All test materials were administered by oral gavage in a volume of 1 mL/kg. Data are expressed either as raw values (mm Hg or beats per minute) or as the change from baseline (average value for about 12 hours in low activity period prior to dosing). Change is SBP (systolic blood pressure) and PP (pulse pressure) over time is shown below: […]

| Compound | ΔPP (mm Hg) 1-6 h [mm Hg] | ΔPP (mm Hg) 6-12 h [mm Hg] | ΔPP (mm Hg) 12-18 h [mm Hg] | ΔSBP (mm Hg) 1-6 h [mm Hg] | ΔSBP (mm Hg) 6-12 h [mm Hg] | ΔSBP (mm Hg) 12-18 h [mm Hg] |
| --- | --- | --- | --- | --- | --- | --- |
| CCN(/[N+]([O-])=N/O[C@@H]1CC[C@@H](C(=O)O)C1)C(C)(C)C [Example 1, (1R,3R)-3-({[(1Z)-2-tert-butyl-2-ethyl-1-oxido-1λ^5-diazan-1-ylidene]amino}oxy)cyclopentanecarboxylic acid] | −7 | −7 | −5 | −12 | −9 | −7 |
| CCCN(/[N+]([O-])=N/O[C@@H]1CC[C@@H](C(=O)O)C1)C(C)(C)C [Example 7, (1R,3R)-3-({[(1Z)-2-tert-butyl-2-propyl-1-oxido-1λ^5-diazan-1-ylidene]amino}oxy)cyclopentanecarboxylic acid] | −4 | −9 | −8 | −9 | −11 | −10 |
| CCN(/[N+]([O-])=N/O[C@@H]1CC[C@H](C(=O)O)C1)C(C)(C)C [Example 18, (1S,3R)-3-({[(1Z)-2-tert-butyl-2-ethyl-1-oxido-1λ^5-diazan-1-ylidene]amino}oxy)cyclopentanecarboxylic acid] | −14 | −10 | −6 | −18 | −10 | −4 |
